SMILES strings stand for the structures.

The first assay deals with histone deacetylase (HDAC Enzyme). The assay is described as follows: Inhibition of Histone Deacetylase Enzymatic Activity (Boc-Lys(Ac)-AMC, Fluor-de-Lys developer). Format: biochemical. The conditions noted are these: Table 9; read-out: HDAC Inhibition (IC50 μM) HDAC Enzyme. How it is done:
The following protocol is used to assay the compounds of the invention.
The mixture is pre-incubated for 5 minutes at room temperature. The reaction is started by bringing the temperature to 37° C. and adding 16 μl substrate. Total reaction volume is 50 μl.
In the Tables 8, 9 and 10, A≦[…]<B≦0.1 μM; 0.1 μM<C≦1 μM; and 1 μM<D≦10 μM.
Consider `O=C(NO)c1cnc(N2CC3CC(CN(c4cc(C(F)(F)F)ccn4)C3)C2)nc1` [N-hydroxy-2-(7-(4-(trifluoromethyl)pyridin-2-yl)-3,7-diazabicyclo[3.3.1]nonan-3-yl)pyrimidine-5-carboxamide], for which the IC50 lay in the range of 0.1 to 1 µM.

`O=C(NO)c1cnc(N2C[C@H]3C[C@@H]2CN3c2cc(C(F)(F)F)ccn2)nc1` [N-hydroxy-2-((1R,4R)-5-(4-(trifluoromethyl)pyridin-2-yl)-2,5-diazabicyclo[2.2.1]heptan-2-yl)pyrimidine-5-carboxamide]: the IC50 is under 0.05 µM.

For `Cc1cccc(N2C[C@H]3C[C@@H]2CN3c2ncc(C(=O)NO)cn2)c1` [N-hydroxy-2-((1R,4R)-5-m-tolyl-2,5-diazabicyclo[2.2.1]heptan-2-yl)pyrimidine-5-carboxamide], the IC50 fell in the range of 0.05 to 0.1 µM.

`Cc1ccc(N2C[C@H]3C[C@@H]2CN3c2ncc(C(=O)NO)cn2)cc1` [N-hydroxy-2-((1R,4R)-5-p-tolyl-2,5-diazabicyclo[2.2.1]heptan-2-yl)pyrimidine-5-carboxamide]: the IC50 was under 0.05 µM.

Turning to `O=C(NO)c1cnc(N2C[C@@H]3C[C@H]2CN3c2ccccc2C(F)(F)F)nc1` [N-hydroxy-2-((1S,4S)-5-(2-(trifluoromethyl)phenyl)-2,5-diazabicyclo[2.2.1]heptan-2-yl)pyrimidine-5-carboxamide], the IC50 was 0.1 to 1 µM.

With `O=C(NO)c1cnc(N2C[C@@H]3C[C@H]2CN3c2cc(C(F)(F)F)nc3ccccc23)nc1` [N-hydroxy-2-((1S,4S)-5-(2-(trifluoromethyl)quinolin-4-yl)-2,5-diazabicyclo[2.2.1]heptan-2-yl)pyrimidine-5-carboxamide], the IC50 was under 0.05 µM.

Regarding `O=C(NO)c1cnc(N2C[C@@H]3C[C@H]2CN3c2cccc(OC(F)(F)F)c2)nc1` [N-hydroxy-2-((1S,4S)-5-(3-(trifluoromethoxy)phenyl)-2,5-diazabicyclo[2.2.1]heptan-2-yl)pyrimidine-5-carboxamide], the concentration for half-maximal inhibition (IC50) is under 0.05 µM.

Take `O=C(NO)c1cnc(N2C[C@@H]3C[C@H]2CN3C(=O)c2cccc(C(F)(F)F)c2)nc1` [N-hydroxy-2-((1S,4S)-5-(3-(trifluoromethyl)benzoyl)-2,5-diazabicyclo[2.2.1]heptan-2-yl)pyrimidine-5-carboxamide]: the IC50 was 0.05 to 0.1 µM.

Still in this assay, the particulars now being: Table 10; read-out: HDAC Inhibition (IC50 μM) HDAC Enzyme.
As to `O=C(CCCCCN1C(=O)CN=C(c2ccccc2)c2ccccc21)NO` [(Z)-N-hydroxy-6-(2-oxo-5-phenyl-2,3-dihydro-1H-benzo[e][1,4]diazepin-1-yl)hexanamide], the IC50 fell in the range of 0.1 to 1 µM.

With `O=C(CCCCCCCN1C(=O)CN=C(c2ccccc2)c2ccccc21)NO` [(Z)-N-hydroxy-8-(2-oxo-5-phenyl-2,3-dihydro-1H-benzo[e][1,4]diazepin-1-yl)octanamide], the IC50 is 0.1 to 1 µM.

For `O=C(NO)c1cnc(N2CCn3c(nnc3C(F)(F)F)C2)nc1` [N-hydroxy-2-(3-(trifluoromethyl)-5,6-dihydro-[1,2,4]triazolo[4,3-a]pyrazin-7(8H)-yl)pyrimidine-5-carboxamide], the IC50 was 0.05 to 0.1 µM.

As for `O=C(NO)c1cnc(N2CCn3c(nnc3-c3ccccc3)C2)nc1` [N-hydroxy-2-(3-phenyl-5,6-dihydro-[1,2,4]triazolo[4,3-a]pyrazin-7(8H)-yl)pyrimidine-5-carboxamide], the 50% inhibitory concentration (IC50) was under 0.05 µM.

`O=C(NO)c1cnc(N2C[C@H]3C[C@@]3(c3ccccc3)C2)nc1` [N-hydroxy-2-((1R,5S)-1-phenyl-3-azabicyclo[3.1.0]hexan-3-yl)pyrimidine-5-carboxamide]: the half-inhibitory concentration (IC50) lay within 0.1 to 1 µM.

The same assay, now with this note: read-out: HDAC Inhibtion (IC50 μM) HDAC Enzyme.
With `COc1ccc2c(c1)C(c1ccc(C(=O)NO)cc1)=Nc1ccccc1O2` [(Z)-N-hydroxy-4-(2-methoxydibenzo[b,f][1,4]oxazepin-11-yl)benzamide], the IC50 lay in the range of 0.1 to 1 µM.

In the case of `O=C(NO)c1ccc(C2=Nc3ccccc3Oc3cc(C(F)(F)F)ccc32)cc1` [(Z)-N-hydroxy-4-(3-(trifluoromethyl)dibenzo[b,f][1,4]oxazepin-11-yl)benzamide], the IC50 lay within 0.05 to 0.1 µM.

On to `COc1ccc2c(c1)Oc1ccccc1N=C2c1ccc(C(=O)NO)cc1` [(Z)-N-hydroxy-4-(3-methoxydibenzo[b,f][1,4]oxazepin-11-yl)benzamide], for which the half-maximal inhibitory concentration (IC50) was in the range of 0.1 to 1 µM.

Take `Cc1ccc2c(c1)Oc1ccccc1N=C2c1ccc(C(=O)NO)cc1` [(Z)-N-hydroxy-4-(3-methyldibenzo[b,f][1,4]oxazepin-11-yl)benzamide]: the IC50 was under 0.05 µM.

Regarding `O=C(NO)c1ccc(C2=Nc3ccccc3Oc3cc(N4CCOCC4)ccc32)cc1` [(Z)-N-hydroxy-4-(3-morpholinodibenzo[b,f][1,4]oxazepin-11-yl)benzamide], the IC50 was 0.1 to 1 µM.

Turning to `COCCOc1cccc2c1Oc1ccccc1N=C2c1ccc(C(=O)NO)cc1` [(Z)-N-hydroxy-4-(4-(2-methoxyethoxy)dibenzo[b,f][1,4]oxazepin-11-yl)benzamide], the IC50 is under 0.05 µM.

With `O=C(NO)c1ccc(C2=Nc3ccccc3Oc3c(OCCN4CCOCC4)cccc32)cc1` [(Z)-N-hydroxy-4-(4-(2-morpholinoethoxy)dibenzo[b,f][1,4]oxazepin-11-yl)benzamide], the IC50 was under 0.05 µM.

Consider `C[S+]([O-])c1cccc2c1Oc1ccccc1N=C2c1ccc(C(=O)NO)cc1` (centres unmarked) [(Z)-N-hydroxy-4-(4-(methylsulfinyl)dibenzo[b,f][1,4]oxazepin-11-yl)benzamide], for which the IC50 is 0.05 to 0.1 µM.

With `CS(=O)(=O)c1cccc2c1Oc1ccccc1N=C2c1ccc(C(=O)NO)cc1` [(Z)-N-hydroxy-4-(4-(methylsulfonyl)dibenzo[b,f][1,4]oxazepin-11-yl)benzamide], the IC50 is under 0.05 µM.

In the case of `CSc1cccc2c1Oc1ccccc1N=C2c1ccc(C(=O)NO)cc1` [(Z)-N-hydroxy-4-(4-(methylthio)dibenzo[b,f][1,4]oxazepin-11-yl)benzamide], the IC50 was under 0.05 µM.

Turning to `O=C(NO)c1ccc(C2=Nc3ccccc3Oc3c(OC(F)(F)F)cccc32)cc1` [(Z)-N-hydroxy-4-(4-(trifluoromethoxy)dibenzo[b,f][1,4]oxazepin-11-yl)benzamide], the IC50 fell in the range of 0.1 to 1 µM.

For the compound `O=C(NO)c1ccc(C2=Nc3ccccc3Oc3c2cccc3C(F)(F)F)cc1` [(Z)-N-hydroxy-4-(4-(trifluoromethyl)dibenzo[b,f][1,4]oxazepin-11-yl)benzamide], the IC50 is under 0.05 µM.

With `O=C(NO)c1ccc(C2=Nc3ccccc3Oc3c(O)cccc32)cc1` [(Z)-N-hydroxy-4-(4-hydroxydibenzo[b,f][1,4]oxazepin-11-yl)benzamide], the IC50 lay in the range of 0.05 to 0.1 µM.

Regarding `COc1cccc2c1Oc1ccc(C(F)(F)F)cc1N=C2c1ccc(C(=O)NO)cc1` [(Z)-N-hydroxy-4-(4-methoxy-8-(trifluoromethyl)dibenzo[b,f][1,4]oxazepin-11-yl)benzamide], the IC50 lay within 0.1 to 1 µM.

In the case of `COc1cccc2c1Oc1ccccc1N=C2c1ccc(C(=O)NO)cc1` [(Z)-N-hydroxy-4-(4-methoxydibenzo[b,f][1,4]oxazepin-11-yl)benzamide], the half-maximal inhibitory concentration (IC50) is 0.05 to 0.1 µM.

On to `Cc1cccc2c1Oc1ccccc1N=C2c1ccc(C(=O)NO)cc1` [(Z)-N-hydroxy-4-(4-methyldibenzo[b,f][1,4]oxazepin-11-yl)benzamide], for which the IC50 fell in the range of 0.05 to 0.1 µM.

Take `CCCc1cccc2c1Oc1ccccc1N=C2c1ccc(C(=O)NO)cc1` [(Z)-N-hydroxy-4-(4-propyldibenzo[b,f][1,4]oxazepin-11-yl)benzamide]: the half-inhibitory concentration (IC50) was 0.1 to 1 µM.

With `COCCN1c2ccccc2N=C(c2ccc(C(=O)NO)cc2)c2ccccc21` [(Z)-N-hydroxy-4-(5-(2-methoxyethyl)-5H-dibenzo[b,e][1,4]diazepin-11-yl)benzamide], the 50% inhibitory concentration (IC50) lay within 0.1 to 1 µM.

For `O=C(NO)c1ccc(C2=Nc3ccccc3N(CCN3CCOCC3)c3ccccc32)cc1` [(Z)-N-hydroxy-4-(5-(2-morpholinoethyl)-5H-dibenzo[b,e][1,4]diazepin-11-yl)benzamide], the IC50 lay in the range of 0.1 to 1 µM.

Turning to `CC(C)N1c2ccccc2N=C(c2ccc(C(=O)NO)cc2)c2ccccc21` [(Z)-N-hydroxy-4-(5-isopropyl-5H-dibenzo[b,e][1,4]diazepin-11-yl)benzamide], the IC50 is under 0.05 µM.

As for `Cc1cccc2c1Oc1ccccc1C(c1ccc(C(=O)NO)cc1)=N2` [(Z)-N-hydroxy-4-(6-methyldibenzo[b,f][1,4]oxazepin-11-yl)benzamide], the IC50 was 0.1 to 1 µM.

`O=C(NO)c1ccc(C2=Nc3ccc(C(F)(F)F)cc3Oc3ccccc32)cc1` [(Z)-N-hydroxy-4-(7-(trifluoromethyl)dibenzo[b,f][1,4]oxazepin-11-yl)benzamide]: the IC50 was 0.1 to 1 µM.

For the compound `O=C(NO)c1ccc(C2=Nc3cc(C(F)(F)F)ccc3Oc3ccccc32)cc1` [(Z)-N-hydroxy-4-(8-(trifluoromethyl)dibenzo[b,f][1,4]oxazepin-11-yl)benzamide], the IC50 fell in the range of 0.1 to 1 µM.

For the compound `Cc1ccc2c(c1)N=C(c1ccc(C(=O)NO)cc1)c1ccccc1O2` [(Z)-N-hydroxy-4-(8-methyldibenzo[b,f][1,4]oxazepin-11-yl)benzamide], the IC50 is 0.05 to 0.1 µM.

Turning to `O=C(NO)c1ccc(C2=Nc3ccccc3N(CCN3CCOCC3)c3ncccc32)cc1` [(Z)-N-hydroxy-4-(11-(2-morpholinoethyl)-11H-benzo[b]pyrido[2,3-e][1,4]diazepin-5-yl)benzamide], the half-maximal inhibitory concentration (IC50) lay within 0.05 to 0.1 µM.

In the case of `O=C(NO)c1ccc(C2=Nc3ccccc3N(CCCN3CCOCC3)c3ncccc32)cc1` [(Z)-N-hydroxy-4-(11-(3-morpholinopropyl)-11H-benzo[b]pyrido[2,3-e][1,4]diazepin-5-yl)benzamide], the IC50 lay within 0.1 to 1 µM.

As to `CC(C)N1c2ccccc2N=C(c2ccc(C(=O)NO)cc2)c2cccnc21` [(Z)-N-hydroxy-4-(11-isopropyl-11H-benzo[b]pyrido[2,3-e][1,4]diazepin-5-yl)benzamide], the IC50 is under 0.05 µM.

`O=C(NO)c1ccc2c(c1)N=C(c1ccncc1)c1ccccc1O2` [(Z)-N-hydroxy-11-(pyridin-4-yl)dibenzo[b,f][1,4]oxazepine-8-carboxamide]: the IC50 was 0.1 to 1 µM.

Values taken from patent publication US8399452B2, “Dibenzo[b,f][1,4]oxazepin-11-yl-N-hydroxybenzamides as HDAC inhibitors” (Methylgene Inc., priority 2006, dated 2013).
